Experimental data reported in article PMC6704710, “Preclinical evaluation of 3D185, a novel potent inhibitor of FGFR1/2/3 and CSF-1R, in FGFR-dependent and macrophage-dominant cancer models” (Journal of Experimental & Clinical Cancer Research : CR, 2019).

Tests used:
Experiment in all cases: Eurofins kinase panel
Format in all cases: biochemical
Conditions in all cases: read-out: Inhibition rate (%)
[1] = molecular target: T1, EphB1(h) (Homo sapiens, UniProt P54762)
T1 construct: purchased Eurofins (KinaseProfiler)
T1 sequence (P54762 18-984): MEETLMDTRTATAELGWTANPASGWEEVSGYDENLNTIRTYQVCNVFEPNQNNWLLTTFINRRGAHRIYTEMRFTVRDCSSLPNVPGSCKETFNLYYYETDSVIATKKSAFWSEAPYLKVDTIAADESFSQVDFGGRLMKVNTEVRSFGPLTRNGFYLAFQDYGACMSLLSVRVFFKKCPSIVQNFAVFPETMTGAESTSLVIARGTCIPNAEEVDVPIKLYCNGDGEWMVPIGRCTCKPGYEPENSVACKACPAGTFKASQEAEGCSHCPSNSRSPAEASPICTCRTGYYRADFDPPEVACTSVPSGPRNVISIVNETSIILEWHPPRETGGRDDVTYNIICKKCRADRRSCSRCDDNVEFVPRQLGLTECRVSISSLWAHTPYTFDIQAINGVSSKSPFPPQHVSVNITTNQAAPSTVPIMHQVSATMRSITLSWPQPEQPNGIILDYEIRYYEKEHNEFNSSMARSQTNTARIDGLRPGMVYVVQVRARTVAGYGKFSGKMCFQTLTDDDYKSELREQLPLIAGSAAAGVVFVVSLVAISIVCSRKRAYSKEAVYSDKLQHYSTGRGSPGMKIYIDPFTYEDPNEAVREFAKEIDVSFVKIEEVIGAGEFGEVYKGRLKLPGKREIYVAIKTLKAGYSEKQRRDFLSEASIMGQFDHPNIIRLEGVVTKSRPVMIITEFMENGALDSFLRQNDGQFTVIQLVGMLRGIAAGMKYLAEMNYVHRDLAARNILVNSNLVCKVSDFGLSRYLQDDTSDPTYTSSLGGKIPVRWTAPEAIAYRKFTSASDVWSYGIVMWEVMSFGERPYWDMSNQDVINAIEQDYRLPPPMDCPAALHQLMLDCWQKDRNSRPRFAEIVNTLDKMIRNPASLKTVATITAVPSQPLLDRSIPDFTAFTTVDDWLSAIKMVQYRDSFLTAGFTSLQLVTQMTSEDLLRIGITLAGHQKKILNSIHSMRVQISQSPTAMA

[2] = molecular target: T2, Haspin(h) (Homo sapiens, UniProt Q8TF76)
T2 construct: purchased Eurofins (KinaseProfiler)
T2 sequence (Q8TF76 1-798): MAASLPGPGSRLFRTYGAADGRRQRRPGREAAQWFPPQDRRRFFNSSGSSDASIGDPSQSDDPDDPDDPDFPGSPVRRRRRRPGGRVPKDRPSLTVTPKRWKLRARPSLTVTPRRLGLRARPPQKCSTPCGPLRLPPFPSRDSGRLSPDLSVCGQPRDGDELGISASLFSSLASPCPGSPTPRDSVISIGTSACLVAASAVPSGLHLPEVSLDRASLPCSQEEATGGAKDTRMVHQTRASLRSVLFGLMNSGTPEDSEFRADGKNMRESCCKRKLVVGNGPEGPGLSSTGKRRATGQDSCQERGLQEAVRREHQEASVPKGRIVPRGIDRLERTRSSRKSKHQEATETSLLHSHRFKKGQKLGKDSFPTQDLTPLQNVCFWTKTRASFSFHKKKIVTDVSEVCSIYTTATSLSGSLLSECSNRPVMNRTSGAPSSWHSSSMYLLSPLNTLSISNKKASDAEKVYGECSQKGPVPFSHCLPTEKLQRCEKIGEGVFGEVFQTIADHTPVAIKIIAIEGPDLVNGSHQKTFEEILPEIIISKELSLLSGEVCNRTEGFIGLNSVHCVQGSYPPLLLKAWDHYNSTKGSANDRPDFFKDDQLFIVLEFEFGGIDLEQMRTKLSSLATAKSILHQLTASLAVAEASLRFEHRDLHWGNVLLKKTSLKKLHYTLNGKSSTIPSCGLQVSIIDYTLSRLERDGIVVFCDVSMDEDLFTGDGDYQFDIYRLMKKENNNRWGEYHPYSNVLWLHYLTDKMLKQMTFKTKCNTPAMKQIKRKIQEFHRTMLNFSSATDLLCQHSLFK

[3] = molecular target: T3, PKBβ(h) (Homo sapiens, UniProt P31751)
T3 construct: purchased Eurofins (KinaseProfiler)
T3 sequence (P31751 whole entry): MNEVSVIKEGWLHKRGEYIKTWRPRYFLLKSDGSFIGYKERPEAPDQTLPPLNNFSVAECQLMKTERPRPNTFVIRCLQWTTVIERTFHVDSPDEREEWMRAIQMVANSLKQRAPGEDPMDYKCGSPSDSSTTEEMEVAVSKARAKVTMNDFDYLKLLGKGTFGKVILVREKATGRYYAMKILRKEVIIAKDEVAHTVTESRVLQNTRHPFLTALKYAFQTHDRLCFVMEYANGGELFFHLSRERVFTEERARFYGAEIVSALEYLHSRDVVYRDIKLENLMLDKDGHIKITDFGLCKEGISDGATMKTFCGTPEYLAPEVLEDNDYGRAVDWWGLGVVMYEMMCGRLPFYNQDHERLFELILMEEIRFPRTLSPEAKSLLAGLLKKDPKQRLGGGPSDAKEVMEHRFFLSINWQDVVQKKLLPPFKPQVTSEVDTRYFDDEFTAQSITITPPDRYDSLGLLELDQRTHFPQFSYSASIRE

SMILES: COc1cc(OC)c(Cl)c(-c2ccc3c(NC(=O)c4ccc(N5CCNC(C)(C)C5)cc4)n[nH]c3n2)c1Cl [3D185]
- inhibition at 0.01 µM ([1]; 10 nM): -9%
- inhibition at 0.1 µM ([1]; 100 nM): 1%
- inhibition at 1 µM ([1]; 1000 nM): 36%
- inhibition at 0.01 µM ([2]; 10 nM): -15%
- inhibition at 0.1 µM ([2]; 100 nM): -6%
- inhibition at 1 µM ([2]; 1000 nM): 4%
- inhibition at 0.01 µM ([3]; 10 nM): 15%
- inhibition at 0.1 µM ([3]; 100 nM): 29%
- inhibition at 1 µM ([3]; 1000 nM): 30%
